We go through two molecules from patent US11274115B2, “Imidazoquinoline derivatives and their use in therapy” (GLAXOSMITHKLINE BIOLOGICALS SA, priority 2016, dated 2022).

Assay type in all cases: cell-based
The test system of assay [1] is human peripheral blood mononuclear cells (hPBMCs). Briefly: IFN-α induction in hPBMCs. Conditions: 24 h. The procedure:
(§1) Assays to Measure Cytokine Induction
(§2) Test compounds were evaluated for cytokine induction in human peripheral blood mononuclear cells (hPBMCs).
(§3) Primary human PBMCs were isolated from fresh blood from healthy donors via Ficoll gradient separation and plated at 0.5×10^6 cells/well in 96-well tissue culture plates (RPMI-1640 plus 10% FBS). hPBMCs were maintained with RPMI-1640 culture media (Invitrogen, Grand Island, N.Y.), antibiotics (Invitrogen) and 10% FBS (Sigma).
(§4) Incubation and Assays for IFN-γ, IFN-α and TNF-α
(§5) hPBMCs were stimulated for 24 h with aqueous formulations of test compounds. Culture supernatants were analyzed for TNF-α and IFN-γ induction using multiplex kits (FluoroKine multiplex kits from R&D Systems, Minneapolis, Minn.) and for IFN-α induction using human IFN-α VeriKine ELISA kit (Pestka Biomedical Laboratories, Inc., Piscataway, N.J.).

Assay [2] shares this test system. Briefly: TNF-α induction in hPBMCs. The following applies: 24 h. As to the method:
as §1, §2, §3, §4, §5

The target in the next assay is T1, human TLR7 (Homo sapiens, UniProt Q9NYK1).
T1 construct: host or cells: HEK293
T1 sequence (Q9NYK1 27-1049): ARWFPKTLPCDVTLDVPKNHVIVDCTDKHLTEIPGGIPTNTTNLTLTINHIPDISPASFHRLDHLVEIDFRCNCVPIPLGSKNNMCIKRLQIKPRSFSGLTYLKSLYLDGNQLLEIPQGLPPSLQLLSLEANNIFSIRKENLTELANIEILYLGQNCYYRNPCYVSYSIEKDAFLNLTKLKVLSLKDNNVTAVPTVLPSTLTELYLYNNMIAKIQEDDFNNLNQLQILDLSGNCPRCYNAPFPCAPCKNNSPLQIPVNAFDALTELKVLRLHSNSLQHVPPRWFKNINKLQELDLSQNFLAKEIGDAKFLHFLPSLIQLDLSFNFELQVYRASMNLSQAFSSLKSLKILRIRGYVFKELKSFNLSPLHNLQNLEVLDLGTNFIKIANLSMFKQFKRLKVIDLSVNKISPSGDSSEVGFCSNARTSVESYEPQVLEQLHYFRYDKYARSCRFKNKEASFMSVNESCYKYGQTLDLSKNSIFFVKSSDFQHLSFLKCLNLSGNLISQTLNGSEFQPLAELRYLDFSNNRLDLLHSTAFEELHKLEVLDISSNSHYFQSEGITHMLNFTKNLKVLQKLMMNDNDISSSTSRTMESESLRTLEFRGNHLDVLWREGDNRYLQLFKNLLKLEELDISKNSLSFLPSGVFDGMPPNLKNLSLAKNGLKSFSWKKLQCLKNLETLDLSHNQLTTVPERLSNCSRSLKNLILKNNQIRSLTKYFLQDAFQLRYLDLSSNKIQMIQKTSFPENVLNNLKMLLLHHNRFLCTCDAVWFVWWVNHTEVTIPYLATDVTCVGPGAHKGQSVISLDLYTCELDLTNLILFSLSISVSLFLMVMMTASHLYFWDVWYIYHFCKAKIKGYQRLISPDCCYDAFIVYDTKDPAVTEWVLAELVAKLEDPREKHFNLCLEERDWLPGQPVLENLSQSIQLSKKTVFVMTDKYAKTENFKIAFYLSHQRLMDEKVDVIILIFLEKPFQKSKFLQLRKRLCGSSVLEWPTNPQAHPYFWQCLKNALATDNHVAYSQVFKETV
Briefly: hTLR7 agonist reporter assay in HEK293 cells (NFκB-SEAP). Conditions: for hTLR7/8 ratio: hTLR7 ED50 over hTLR8 ED50; for EC50: read-out: hTLR7 ED50. As to the method:
(§6) Assay for hTLR7 and hTLR8 Agonist Activity in HEK-293 Cells
(§7) Determination of TLR agonist activity was performed using the HEK293 […]. This assay measures TLR7 and TLR8 selectivity and potency of the compounds tested. HEK293 cells expressing human TLR7 or TLR8 and NFκB responsive Secreted Embryonic Alkaline Phosphatase (SEAP) reporter gene were obtained from InvivoGen (San Diego, Calif.). These cells were maintained in culture media of Dulbecco's Modified Eagle Medium (DMEM) (Invitrogen, Grand Island, N.Y.), 10% Fetal Bovine Serum (FBS) (Sigma, St. Louis, Mo.) and selection antibiotics (Invitrogen, and Invivogen). HEK293 stably transfected with human TLR7 (hTLR7) or human TLR8 (hTLR8) were stimulated for 24 h with aqueous formulations of test compounds and culture supernatants were analyzed for NFκB activation using the colorimetric SEAP detection kit QuantBlue (InvivoGen).

In another assay the target is T2, human TLR8 (Homo sapiens, UniProt Q9NR97).
T2 construct: host or cells: HEK293
T2 sequence (Q9NR97 27-1041): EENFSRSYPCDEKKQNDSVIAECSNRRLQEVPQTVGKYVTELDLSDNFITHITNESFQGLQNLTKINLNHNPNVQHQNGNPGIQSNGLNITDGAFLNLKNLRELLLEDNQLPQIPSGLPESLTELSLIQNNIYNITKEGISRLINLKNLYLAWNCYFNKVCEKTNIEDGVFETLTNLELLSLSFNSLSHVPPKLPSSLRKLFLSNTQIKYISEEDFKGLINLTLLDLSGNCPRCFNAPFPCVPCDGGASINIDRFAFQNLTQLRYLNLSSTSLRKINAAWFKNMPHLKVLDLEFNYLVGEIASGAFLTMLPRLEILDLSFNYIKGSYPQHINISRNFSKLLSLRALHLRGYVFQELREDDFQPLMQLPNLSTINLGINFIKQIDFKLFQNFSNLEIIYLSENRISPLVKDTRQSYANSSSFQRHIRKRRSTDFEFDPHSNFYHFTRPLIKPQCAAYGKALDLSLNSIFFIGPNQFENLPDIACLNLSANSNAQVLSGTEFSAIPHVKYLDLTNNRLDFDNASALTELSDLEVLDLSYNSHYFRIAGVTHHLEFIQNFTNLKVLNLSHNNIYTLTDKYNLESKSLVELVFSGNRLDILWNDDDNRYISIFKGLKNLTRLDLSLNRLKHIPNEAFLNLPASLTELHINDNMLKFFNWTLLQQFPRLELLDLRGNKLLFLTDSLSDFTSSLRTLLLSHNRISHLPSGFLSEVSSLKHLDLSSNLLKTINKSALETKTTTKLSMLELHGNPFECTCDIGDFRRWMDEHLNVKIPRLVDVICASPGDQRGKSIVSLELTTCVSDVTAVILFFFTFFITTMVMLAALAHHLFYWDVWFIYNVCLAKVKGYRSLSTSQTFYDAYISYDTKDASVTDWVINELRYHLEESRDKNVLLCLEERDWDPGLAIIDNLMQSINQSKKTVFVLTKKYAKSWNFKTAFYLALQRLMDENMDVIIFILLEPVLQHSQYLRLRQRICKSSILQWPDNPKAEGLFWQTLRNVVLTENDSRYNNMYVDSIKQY
Briefly: hTLR8 agonist reporter assay in HEK293 cells (NFκB-SEAP). The following applies: for EC50: read-out: hTLR8 ED50. As to the method: as §6, §7

For assay [3], the system named is human peripheral blood mononuclear cells (hPBMCs). Briefly: IFN-γ induction in hPBMCs. The following applies: 24 h, FIG. 11, another occasion. As to the method: as §1, §2, §3, §4, §5
The mark [4] stands for this setting: Table 2, FIG. 3, another occasion, * = only very low levels of NFKB activation were detected.
Setting [5] is: Table 2, FIG. 4, another occasion, * = only very low levels of NFKB activation were detected.

Like-named read-outs stand apart in the source and are kept apart here.

In the case of `CCCCc1nc2c(N)nc3ccccc3c2n1CCO` [Comparative Example 1, reference compound], the “IFN-α induction, in words” value in assay [1] (FIG. 14, another occasion) is given as “Weaker effects”; in assay [1] (FIG. 16, another occasion), “induced little IFN-α”. Further, the “TNF-α induction, in words” value in assay [2] (FIG. 13) is given as “potent at inducing TNF-α”; in assay [2] (FIG. 15, another occasion) it was “effective at inducing TNF-α”. Further, the hTLR7/8 ratio on human TLR7 (Table 1) was determined as 3.1; on human TLR7 (Table 2) it was 2.3; on human TLR7 (Table 3), 1.5; on human TLR7 (Table 4), 2.4. The EC50 on human TLR7 (setting [4]) is 1000 nM; on human TLR7 (Table 3, FIG. 5, another occasion, * = only very low levels of NFKB activation were detected), 1100 nM; on human TLR7 (Table 4, FIG. 7, another occasion), 1500 nM; at human TLR8 (setting [5]), 400 nM; on human TLR8 (Table 3, FIG. 6, another occasion, * = only very low levels of NFKB activation were detected), 720 nM; at human TLR8 (Table 4, FIG. 8, another occasion), 610 nM. For the same molecule, the “IFN-γ induction, in words” value in assay [3] is “the most potent at inducing IFN-γ”.

Consider `CCCCCCCC/C=C\CCCCCCCC(=O)OC[C@@H](O)COP(=O)(O)OCCOc1ccc2c(c1)nc(N)c1nc(CCCC)n(CCO)c12` [Example 3], for which the “IFN-α induction, in words” value in assay [1] (FIG. 12, another occasion) is “more potent at inducing IFN-α than Comparative Examples 1, 2 and 3”. For the same molecule, the “TNF-α induction, in words” value in assay [2] (FIG. 13) is recorded as “potent at inducing TNF-α”. On human TLR7 (Table 2), the “relative potency hTLR7 versus hTLR8, in words” value is reported as “approximately equally potent at both receptors” and the hTLR7/8 ratio worked out at 1.2. Besides, the EC50 at human TLR7 (setting [4]) came to 3400 nM. The “hTLR7 agonist activity, in words” value on human TLR7 (text on Table 2, FIG. 3) is “potent agonist of hTLR7 and hTLR8”. Further, on human TLR8 (setting [5]), the EC50 is 2800 nM. Also, the “hTLR8 agonist activity, in words” value at human TLR8 (text on Table 2, FIG. 4) is “potent agonist of hTLR7 and hTLR8”. The “IFN-γ induction, in words” value in assay [3] was “potent at inducing IFN-γ and each was more potent than Comparative Example 3”.
